Values quoted from earlier work as cited in patent publication US20170176475A1, “NOVEL METHODS AND KITS FOR DETECTING A RIFAMYCIN, OR DERIVATIVE OR ANALOGUE THEREOF” (DREXEL UNIVERSITY, priority 2014, published 2017).

time by which nearly all the drug in the bile is present in the deacetylated form (bile, normal metabolizing patients): ≤ 6 h
time to peak plasma drug concentrations after intake (orally administered): two to four
SMILES: CO[C@H]1/C=C/O[C@@]2(C)Oc3c(C)c(O)c4c(O)c(c(/C=N/N5CCN(C)CC5)c(O)c4c3C2=O)NC(=O)/C(C)=C\C=C\[C@H](C)[C@H](O)[C@@H](C)[C@@H](O)[C@@H](C)[C@H](OC(C)=O)[C@@H]1C [rifampicin, (7S,9E,11S,12R,13S,14R,15R,16R,17S, 18S,19E,21Z)-2,15,17,27,29-pentahydroxy-11-methoxy-3,7,12,14,16,18,22-heptamethyl-26-{(E)-[(4-methylpiperazin-1-yl)imino]methyl}-6,23-dioxo-8,30-dioxa-24-azatetracyclo [23.3.1.1^4,7.0^5,28]triaconta-1(28),2,4,9,19,21,25(29),26-octaen-13-yl acetate]
